Tested on: J774.A1
Assay: Cytotoxicity against mouse J774.A1 cells by LDH release assay
Format: functional, cell-based
Details: Mus musculus, J774.A1

SMILES	IC50 [µM]
C[C@@H]1CC[C@]2(C)[C@H](CC(=O)[C@H]2C)[C@@]1(C)C[C@H](O)C1=CC(=O)OC1O (some centres not stated)	1.4
CC1=CCC[C@@H]2[C@@](C)(C[C@H](O)C3=CC(=O)OC3O)[C@H](C)CC[C@@]12C (some centres not stated)	3.6
CC(=O)O[C@@H]1CC[C@@H]2[C@@](C)(C[C@H](O)C3=CC(=O)O[C@@H]3OC(C)=O)[C@H](C)CC[C@@]2(C)C(=O)C1	5.3
COC(=O)[C@H]1C[C@@H]2[C@@](C)(C[C@H](O)C3=CC(=O)OC3O)[C@H](C)CC[C@@]2(C)[C@@]1(C)O (some centres not stated)	1.5
C[C@@H]1CC[C@]2(C)[C@H](C[C@H](C(=O)O)[C@]2(C)O)[C@@]1(C)C[C@H](O)C1=CC(=O)OC1O (some centres not stated)	24.7
C[C@@H]1CC[C@@]2(C)C(=O)C[C@H](O)CC[C@@H]2[C@@]1(C)C[C@H](O)C1=CC(=O)OC1O (mixture of isomers)	25.4

Same assay, conditions: j774.a1

SMILES	IC50 [µM]
C[C@@H]1CC[C@@]2(C)C(=O)C[C@@H](O)CC[C@@H]2[C@@]1(C)C[C@H](O)C1=CC(=O)OC1O (stereo in doubt; 1)	16.6

Source: ChEMBL document CHEMBL4665691, “Callicarpins, Two Classes of Rearranged ent-Clerodane Diterpenoids from Callicarpa Plants Blocking NLRP3 Inflammasome-Induced Pyroptosis” (J Nat Prod, 2020)
